Assay: Partition coefficient of the compound, log P
Assay type: physicochemical
Conditions: octanol/water

Row | SMILES | logP
1 | CCc1cc(-c2n[nH]cc2Oc2ccccc2)c(O)cc1O | 3.93
2 | Cc1cccc(C(=N)NOC(=O)c2ccc(C)cc2Cl)c1 | 5.42
3 | Nc1sc2c(c1C(=O)Nc1cccc(Cl)c1)CCCC2 | 4.64
